We go through 7 compounds from article PMC5897531, “Identification of an Alarm Pheromone-Binding Chemosensory Protein From the Invasive Sycamore Lace Bug Corythucha ciliata (Say)” (Frontiers in Physiology, 2018).

For test [1], the target named is T1, c18915_g1 (Corythucha ciliata, UniProt A0A2S0M1C0).
T1 construct: gene CSP8; full length 133 aa
T1 sequence (A0A2S0M1C0 22-133): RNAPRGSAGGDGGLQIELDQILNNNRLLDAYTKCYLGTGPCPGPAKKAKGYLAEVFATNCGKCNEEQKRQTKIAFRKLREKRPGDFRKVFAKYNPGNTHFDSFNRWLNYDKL
The test is described as follows: direct fluorescence titration. The format is binding. The following applies: fluorescent probe; conditions presumably as for CcilCSP2.

For test [2], the system named is sycamore lace bug nymphs. The test is described as follows: Petri dish test, behavioral response of nymphs. Format: in vivo, Corythucha ciliata. The following applies: for Chi-square value, choice of nymphs: compound vs. hexane, 20 μl on filter paper, 5 min; for behavioral response of nymphs: petri dish. Here is the method:
One test was conducted in a petri dish (15 cm diameter) at 22–26°C. Two filter papers (3 cm diameter) were placed symmetrically on both sides of the petri dish. 20 μl of the compound to be tested (1, 0.1 or 0.01 μg/μl) was added to one filter paper. 20 μl hexane was added as a control to the other filter paper. The filter papers were placed at a distance of 5 cm from the start position at the center of the petri dish where 40 sycamore lace bug nymphs were released. The number of nymphs on each filter paper was recorded after 5 min. Each assay was replicated four times with a new petri dish for each replicate. The choice between hexane and a blank was also tested. […] The numbers of insect on each filter paper were compared using chi-square analysis.

The subject of test [3] is sycamore lace bug nymphs. The test is described as follows: Petri dish test, behavioral response of nymphs. Format: in vivo, Corythucha ciliata. The following applies: Geraniol vs. Phenyl benzoate.
Test [4] deals with CcilCSP2 (Corythucha ciliata, UniProt A0A2S0M1B9). The experiment in a line: Fluorescence competitive binding assay with 1-NPN. As for the experimental part: Briefly, the sequence of CcilCSP2 encoding the mature CSP protein was expressed in Escherichia coli BL21 (DE3) competent cells (Transgen). Cells were grown at 37°C until OD600 ≈ 0.60, when expression was induced with 1 mM IPTG. After incubating an additional 8 h at 28°C, cells were harvested by centrifugation. The purification of CcilCSP2 was performed using HisTrap affinity columns (GE Healthcare Biosciences, Uppsala, Sweden).

In test [5] the test system is sycamore lace bug nymphs. The test is described as follows: Plant leaf test, repellency rate of nymphs. The format is in vivo, Corythucha ciliata. The following applies: for behavioral response of nymphs: plant leaves. As for the experimental part: To further confirm the behavioral effects of each active substance, the behavioral response of sycamore lace bug nymphs was tested by directly applying the compounds to a P. × acerifolia leaf. […] Photographs were then taken at 0, 2, and 4 min to assess the repellency rate, which was calculated using the following formula: Repellency rate = M/T^*100, where T = the total number of sycamore lace bug nymphs in the tested colony at 0 min, and M = the number of sycamore lace bug nymphs that had moved at 2 or 4 min. Experimental conditions were the same as for the petri dish experiments. Hexane was used as the mock treatment. The repellency rates of the nymphs in each treatment were compared using a Kruskal Wallis H-test followed by Mann-Whitney U-tests.

The subject of test [6] is sycamore lace bug adults. The experiment in a line: Y-shaped olfactometer, behavioral response of adults. Format: in vivo, Corythucha ciliata. The note with it: Y-tube; for χ2, choice of adults: P > 0.05; for behavioral response of adults: 1 and 0.1 μg/μl. As for the experimental part: Compounds that potentially bind with high affinity to CSPs were purchased from Sigma (St Louis, MO, USA) to test their effects on sycamore lace bug behavior. The behavioral response of sycamore lace bug adults (1:1 sex ratio) was assessed using a Y-shaped olfactometer. The length of the arms and the diameter of the tube were 10 and 5 cm, respectively. The authentic standards were dissolved in hexane at concentrations of 1 and 0.1 μg/μl. Then 10 μl of solution was applied to a 1 cm^2 filter paper. The filter paper was placed in one arm of the Y-shaped olfactometer, and 10 μl hexane was placed in the other arm as a control. The amount of airflow was set at 250 ml/min. In each experiment, a single sycamore lace bug adult was released at the base of the olfactometer stem and observed for 10 min. During this time, insects not making any choice were recorded as having “no response”. Insects entering more than halfway into the olfactometer arm and staying for at least 10 s were recorded as having a “response”. After 10 insects were tested, the orientation of the Y-shaped olfactometer was reversed to avoid environmental effects, and the inner wall was cleaned with degreased cotton containing acetone, washed with ethanol, and then washed with distilled water and dried in an oven. The experiment was conducted in a behavioral observation chamber at 26°C. The experiment was repeated seven times, and each time the behavior of 10 insects was tested. The choice of insects between chemicals and hexane was compared using chi-square analysis.

Read-outs that look alike come from different tables or passages of the source. Marks after values point to notes of the source that are not given here.

CcilCSP2, sequence (A0A2S0M1B9 entry or part of it): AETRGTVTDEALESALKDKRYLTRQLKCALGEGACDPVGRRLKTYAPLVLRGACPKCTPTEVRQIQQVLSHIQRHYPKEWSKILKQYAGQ

With `c1ccc(Nc2cccc3ccccc23)cc1` [1-NPN], the Kd result in test [1] is given as “Affinity of c18915_g1 for 1-NPN”.
With `c1ccc2ccccc2c1` [Naphthalene], the “Chi-square value, choice of nymphs” value in test [2] (0.01 μg/μl) is listed as 0.243; in test [2] (0.1 μg/μl), 1.190; in test [2] (1 μg/μl) it was 0.333.
As to `CC(C)=CCC/C(C)=C/CO` [Geraniol, E-3,7-dimethyl-2,6-octadien-1-ol, reference compound], the “Chi-square value, choice of nymphs” value was 0.214 in test [3] (0.01 μg/μl); 0.267 in test [3] (0.1 μg/μl); 0.083 in test [3] (1 μg/μl); 5.444^a^* in test [2] (0.01 μg/μl); 10.965^** in test [2] (0.1 μg/μl); 13.928^** in test [2] (1 μg/μl). Further, the “behavioral response of nymphs” value in test [2] and in test [5] was “significantly repelled” in each case. The same compound returned a Kd in test [4] of 15.2 µM. For the same compound, the “Displacement of 1-NPN” value in test [4] (competitive binding) is “more than 50%”. Further, the repellency rate is on record as 25%^* in test [5] (2 min, 0.01 μg/μl); 50%^* in test [5] (2 min, 0.1 μg/μl); 72.41%^* in test [5] (2 min, 1 μg/μl); 25%^* in test [5] (4 min, 0.01 μg/μl); 57.14%^* in test [5] (4 min, 0.1 μg/μl); 79.41%^* in test [5] (4 min, 1 μg/μl). Besides, the “χ2, choice of adults” value is 1.52 in test [6] (0.1 μg/μl vs. hexane) and 0.069 in test [6] (1 μg/μl vs. hexane). For the same compound, the “behavioral response of adults” value in test [6] is reported as “not significantly affected”.
Regarding `Cc1ccc(C(C)C)c(O)c1` [Thymol], the “Chi-square value, choice of nymphs” value in test [2] (0.01 μg/μl) came out at 0.400; in test [2] (0.1 μg/μl), 0.111; in test [2] (1 μg/μl), 0.125.
`O=C(Oc1ccccc1)c1ccccc1` [Phenyl benzoate]: the “Chi-square value, choice of nymphs” value in test [2] (0.01 μg/μl) is given as 0.615; in test [2] (0.1 μg/μl), 14.629^**; in test [2] (1 μg/μl), 5.818^*. For the same compound, the “behavioral response of nymphs” value in test [2] was “significantly repelled”; in test [5] it was “repellent effect of phenyl benzoate was further confirmed”. In addition, the “Displacement of 1-NPN” value in test [4] (competitive binding) is reported as “more than 50%”. The Kd in test [4] (competitive binding, 1-NPN as fluorescent reporter, calculated from IC50, read-out: KD) is 13.9 µM. The repellency rate in test [5] (2 min, 0.01 μg/μl) worked out at 12%; in test [5] (2 min, 0.1 μg/μl), 50%^*; in test [5] (2 min, 1 μg/μl), 63.16%^*; in test [5] (4 min, 0.01 μg/μl), 13%; in test [5] (4 min, 0.1 μg/μl), 57.14%^*; in test [5] (4 min, 1 μg/μl), 73.68%^*. In addition, the figures for the “χ2, choice of adults” value in test [6] (0.1 μg/μl vs. hexane) and in test [6] (1 μg/μl vs. hexane) were 0.083 and 0.176, respectively. The “behavioral response of adults” value in test [6] is given as “not significant”.
Consider `Cc1ccc(C(C)C)cc1` [p-Cymene], for which the “Chi-square value, choice of nymphs” value in test [2] (0.01 μg/μl) is given as 0.083; in test [2] (0.1 μg/μl), 0.026; in test [2] (1 μg/μl), 0.048.
In test [4], `c1ccc(Nc2cccc3ccccc23)cc1` [1-NPN, N-Phenyl-1-naphthylamine] yielded a Kd of 2.08 µM.
